For 25 compounds, EC50 results are on record in US12552771B2, “Carboxylic acid containing azetidinyl compounds for the treatment of neurodegenerative diseases” (Celgene Corporation, priority 2021, dated 2026).

A value given as a limit tells only on which side of the number the result lay.

T1 sequence (Q9H228 whole entry): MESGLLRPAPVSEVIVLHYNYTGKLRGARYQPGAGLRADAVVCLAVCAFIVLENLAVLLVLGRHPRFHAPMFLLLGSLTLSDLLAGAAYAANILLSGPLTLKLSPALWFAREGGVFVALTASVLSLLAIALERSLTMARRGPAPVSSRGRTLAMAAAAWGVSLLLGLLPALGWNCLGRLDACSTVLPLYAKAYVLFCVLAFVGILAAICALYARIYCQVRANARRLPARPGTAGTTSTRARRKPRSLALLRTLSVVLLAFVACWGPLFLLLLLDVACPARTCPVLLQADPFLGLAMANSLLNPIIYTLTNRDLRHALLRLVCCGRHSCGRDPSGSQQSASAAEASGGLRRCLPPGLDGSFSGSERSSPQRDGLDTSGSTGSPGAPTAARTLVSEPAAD

This experiment addresses T1, S1P5 receptors (Homo sapiens, UniProt Q9H228).
T1 construct: expressed in transfected cells; host or cells: CHO cells (membranes)
In words: [35S]-GTPγS binding assay with CHO-S1P5 receptor membranes. The experiment is classed as biochemical. The conditions noted are these: membranes of CHO cells expressing recombinant S1P5 receptors; measure of S1P5 agonism. The protocol:
CHO cells expressing recombinant S1P5 receptors were cultured in 500 cm^2 culture trays and, once confluent, rinsed and detached with cell-lifting buffer (10 mM HEPES, 154 mM NaCl, 6.85 mM EDTA, pH 7.4). Cells were then pelleted by centrifugation, resuspended, and homogenized in membrane preparation buffer (10 mM HEPES and 10 mM EDTA, pH 7.4) using a Polytron PT 1200E homogenizer (Kinematica, Luzern, Switzerland). Cellular proteins were pelleted by centrifugation at 48,000×g at 4° C. for 30 minutes. The resulting supernatant was discarded, and the pellet was re-suspended again in membrane preparation buffer, homogenized for a second time, and then centrifuged again as described above. The final cellular protein pellet was suspended in ice cold resuspension buffer (10 mM HEPES and 0.1 mM EDTA, pH 7.4), divided into aliquots, and stored at −80° C. until use.
Functional binding assays for [^35]-GTPγS were performed in 96-well non-binding surface plates with a final volume of 200 μL. The test compounds were serially diluted in DMSO and added to assay plates using a Tecan D300E digital printer with a total volume of […]. The control sphingosine-1-phosphate (SiP) was prepared separately by preparing a 400 μM stock solution from a 100 nmol pellet of SiP in 10 mM Na2CO3 with 2% […]. The serial dilution of SiP was done using complete assay buffer (20 mM HEPES, 10 mM MgCl2, 100 mM NaCl, 1 mM EDTA, 0.1% fatty acid free bovine serum albumin (BSA), and 30 μg/mL saponin, pH 7.4) and transferred to wells already containing 0.4 μL DMSO. All the wells were then loaded to a total volume of 40 μL of complete assay buffer, except the non-specific binding (NSB) wells. For NSB wells, 40 μL/well of 50 μM GTPγS (Sigma Aldrich, cat #G8634, St. Louis, MO) was added to wells containing 0.4 μL of DMSO. The assay was started by the addition of 120 μL/well of CHO-S1P receptor membrane solution containing 40 μg/mL of membrane protein, 16.67 μM guanosine diphosphate (GDP; Sigma Aldrich, cat #G7127, St. Louis, MO), and 2.5 mg/mL of WGA PVT SPA beads in complete buffer. Assay plates were then sealed and incubated at room temperature with gentle agitation for 30 minutes. Next, 40 μL/well of 1 nM of [^35]-GTPγS (PerkinElmer, cat #NEG030X250UC, Waltham, MA) in basic assay buffer (20 mM HEPES, 10 mM MgCl2, 100 mM NaCl, and 1 mM EDTA, pH7.4) was added to the assay plates to yield a final concentration of 200 pM and the plates were further incubated for 40 minutes at room temperature with gentle agitation. The assay was terminated by centrifugation of the plates at 1000 rpm for 3 minutes using an Eppendorf 5810R centrifuge (Eppendorf, Hamburg, Germany) and G protein bound radioactivity was quantitated using a MicroBeta2 microplate scintillation counter (PerkinElmer, Waltham, MA). As G protein bound radioactivity directly correlates to receptor activation and coupling to the G protein, this assay is a measure of S1P5 agonism.
(In general: Binding of GTPγS marks nucleotide exchange on a G protein.)
For `O=C(O)C1CN(C2CCc3cc(C4CN(c5cccc(F)c5)C4)ccc32)C1` (single isomer, unassigned) [Compound 8b, 1-(5-(1-(3-fluorophenyl)azetidin-3-yl)-2,3-dihydro-1H-inden-1-yl)azetidine-3-carboxylic acid], the concentration for a half-maximal effect (EC50) (commonly the concentration at which the effect is half-maximal) lay in the range of 100 to 1000 nM.

As to `Cc1cc(C2CN(c3ccccc3)C2)cc(C)c1CN1CCC(C(=O)O)CC1` [Compound 45, 1-(2,6-dimethyl-4-(1-phenylazetidin-3-yl)benzyl)piperidine-4-carboxylic acid], the EC50 is 100 to 1000 nM.

With `Cc1cc(C2CN(c3c(Cl)cccc3Cl)C2)cc(C)c1CN1CCC(C(=O)O)C(F)C1` (stereo not shown) [Compound 64, 1-(4-(1-(2,6-dichlorophenyl)azetidin-3-yl)-2,6-dimethylbenzyl)-3-fluoro-piperidine-4-carboxylic acid], the EC50 was at most 10 nM.

For `Cc1cc(C2CN(c3ccc(C4CC4)cc3)C2)cc(C)c1CN1CCC(C(=O)O)CC1` [Compound 48, 1-(4-(1-(4-cyclopropylphenyl)azetidin-3-yl)-2,6-dimethylbenzyl)piperidine-4-carboxylic acid], the EC50 was 1000 to 10000 nM.

Regarding `O=C(O)C1CCN(C2CCc3cc(C4CN(c5ccccc5F)C4)ccc32)CC1` (single isomer, unassigned) [Compound 4b, 1-(5-(1-(2-fluorophenyl)azetidin-3-yl)-2,3-dihydro-1H-inden-1-yl)piperidine-4-carboxylic acid], the EC50 was in the range of 1000 to 10000 nM.

Consider `Cc1cc(CN2CCC(C(=O)O)CC2)ncc1C1CN(c2c(Cl)cccc2Cl)C1` [Compound 77, 1-((5-(1-(2,6-dichlorophenyl)azetidin-3-yl)-4-methylpyridin-2-yl)methyl)-piperidine-4-carboxylic acid], for which the EC50 fell in the range of 100 to 1000 nM.

`Cc1cc(C2CN(c3c(Cl)cccc3Cl)C2)c(C)nc1CN1CCC(C(=O)O)CC1` [Compound 82, 1-((5-(1-(2,6-dichlorophenyl)azetidin-3-yl)-3,6-dimethylpyridin-2-yl)-methyl)piperidine-4-carboxylic acid]: the EC50 was in the range of 100 to 1000 nM.

Consider `O=C(O)C1CCN(C2CCc3cc(C4CN(c5cccc(F)c5)C4)ccc32)CC1` (single isomer, unassigned) [Compound 3b, 1-(5-(1-(3-fluorophenyl)azetidin-3-yl)-2,3-dihydro-1H-inden-1-yl)piperidine-4-carboxylic acid], for which the EC50 lay in the range of 1000 to 10000 nM.

Regarding `Cc1cc(CN2CCC(C(=O)O)CC2)c(C)nc1C1CN(c2c(Cl)cccc2Cl)C1` [Compound 83, 1-((6-(1-(2,6-dichlorophenyl)azetidin-3-yl)-2,5-dimethyl-pyridin-3-yl)methyl)piperidine-4-carboxylic acid], the 50% effective concentration (EC50) lay within 10 to 100 nM.

Turning to `Cc1cc(N2CC(F)(c3c(Cl)cccc3Cl)C2)cc(C)c1CN1CCC(C(=O)O)CC1` [Compound 37, 1-(4-(3-(2,6-dichlorophenyl)-3-fluoroazetidin-1-yl)-2,6-dimethylbenzyl)-piperidine-4-carboxylic acid], the EC50 was in the range of 10 to 100 nM.

Turning to `Cc1cc(C2CN(c3c(Cl)cccc3Cl)C2)cc(C)c1CN1CCC(C(=O)O)CC1C` (stereo not shown) [Compound 63, 1-(4-(1-(2,6-dichlorophenyl)azetidin-3-yl)-2,6-dimethylbenzyl)-2-methyl-piperidine-4-carboxylic acid], the concentration giving a half-maximal response (EC50) lay in the range of 10 to 100 nM.

Regarding `O=C(O)[C@H]1CCN(Cc2ccc(C3CN(c4c(Cl)cccc4Cl)C3)cc2)C1` [Compound 12a, (S)-1-(4-(1-(2,6-dichlorophenyl)azetidin-3-yl)benzyl)pyrrolidine-3-carboxylic acid], the EC50 fell in the range of 10 to 100 nM.

With `Cc1cc(C2CN(c3ccccc3F)C2)cc(C)c1CN1CCC(C(=O)O)CC1` [Compound 46, 1-(4-(1-(2-fluorophenyl)azetidin-3-yl)-2,6-dimethylbenzyl)piperidine-4-carboxylic acid], the EC50 was 10 to 100 nM.

On to `CCc1cccc(CC)c1N1CC(c2cc(C)c(CN3CCC(C(=O)O)CC3)c(C)c2)C1` [Compound 69, 1-(4-(1-(2,6-diethylphenyl)azetidin-3-yl)-2,6-dimethylbenzyl)piperidine-4-carboxylic acid], for which the 50% effective concentration (EC50) is at most 10 nM.

Turning to `Cc1cc(C2CN(c3cccc4ccccc34)C2)cc(C)c1CN1CCC(C(=O)O)CC1` [Compound 75, 1-(2,6-dimethyl-4-(1-(naphthalen-1-yl)azetidin-3-yl)benzyl)piperidine-4-carboxylic acid], the concentration giving a half-maximal response (EC50) is 100 to 1000 nM.

`O=C(O)C1CCN(Cc2ccc(C3CN(c4c(Cl)cccc4Cl)C3)c(F)c2)CC1` [Compound 22, 1-(4-(1-(2,6-dichlorophenyl)azetidin-3-yl)-3-fluorobenzyl)piperidine-4-carboxylic acid]: the EC50 was at most 10 nM.

For `O=C(O)C1CN(Cc2ccc(C3CN(c4c(Cl)cccc4Cl)C3)cc2)C1` [Compound 13, 1-(4-(1-(2,6-dichlorophenyl)azetidin-3-yl)benzyl)azetidine-3-carboxylic acid], the EC50 is at most 10 nM.

As for `Cc1cc(C2CN(c3c(C)cccc3C#N)C2)cc(C)c1CN1CCC(C(=O)O)CC1` [Compound 74, 1-(4-(1-(2-cyano-6-methylphenyl)azetidin-3-yl)-2,6-dimethylbenzyl)-piperidine-4-carboxylic acid], the EC50 is at most 10 nM.

On to `CCc1cc(C2CN(c3c(Cl)cccc3Cl)C2)cc(C)c1CN1CCC(C(=O)O)CC1` [Compound 55, 1-(4-(1-(2,6-dichlorophenyl)azetidin-3-yl)-2-ethyl-6-methylbenzyl)-piperidine-4-carboxylic acid], for which the EC50 was at most 10 nM.

As for `O=C(O)C1CCN(C2CCc3cc(C4CN(c5c(Cl)cccc5Cl)C4)ccc32)CC1` (single isomer, unassigned) [Compound 1b, 1-(5-(1-(2,6-dichlorophenyl)azetidin-3-yl)-2,3-dihydro-1H-inden-1-yl)piperidine-4-carboxylic acid], the EC50 fell in the range of 100 to 1000 nM.

For `O=C(O)C1CCN(Cc2ccc(C3CN(c4c(Cl)cccc4Cl)C3)cc2)CC1` [Compound 11, 1-(4-(1-(2,6-dichlorophenyl)azetidin-3-yl)benzyl)piperidine-4-carboxylic acid], the 50% effective concentration (EC50) lay in the range of 10 to 100 nM.

Consider `O=C(O)C1CCN(Cc2ccc(C3CN(c4c(Cl)cccc4Cl)C3)nc2)CC1` [Compound 21, 1-((6-(1-(2,6-dichlorophenyl)azetidin-3-yl)pyridin-3-yl)methyl)piperidine-4-carboxylic acid], for which the concentration for a half-maximal effect (EC50) lay within 10 to 100 nM.

In the case of `O=C(O)C1CCN(C2CCc3cc(C4CN(c5ccccc5F)C4)ccc32)CC1` (single isomer, unassigned) [Compound 4a, 1-(5-(1-(2-fluorophenyl)azetidin-3-yl)-2,3-dihydro-1H-inden-1-yl)piperidine-4-carboxylic acid], the concentration giving a half-maximal response (EC50) lay in the range of 10 to 100 nM.

`O=C(O)C1CCN(Cc2ccc(C3CN(c4ccc(C5CC5)c(Cl)c4)C3)cc2)CC1` [Compound 42, 1-(4-(1-(3-chloro-4-cyclopropylphenyl)azetidin-3-yl)benzyl)piperidine-4-carboxylic acid]: the EC50 is 100 to 1000 nM.

Take `O=C(O)C1CCN(C2CCc3cc(N4CC(c5ccccc5F)C4)ccc32)CC1` (single isomer, unassigned) [Compound 10a, 1-(5-(3-(2-fluorophenyl)azetidin-1-yl)-2,3-dihydro-1H-inden-1-yl)piperidine-4-carboxylic acid]: the concentration for a half-maximal effect (EC50) is 10 to 100 nM.
